Data on three molecules can be found in paper PMC11421016, “Biotransformation and Epithelial Toxicity of Prenylated Phenolics from Licorice Roots (Glycyrrhiza spp.) in 3D Apical-Out Mucus-Producing Human Enteroids” (Journal of Agricultural and Food Chemistry, 2024).

Data set [1] relates to human ileal apical-out enteroids. Briefly: Cytotoxicity by LDH leakage assay in apical-out enteroids. The format is cell-based. How it is done:
(§1) Cytotoxicity and effects on cell viability after exposure to glab, licoA, and glycy in apical-out and apical-in enteroids (6.25–500 μg mL^–1) and proliferating Caco-2 cells (3.13–100 μg mL^–1) were determined by LDH leakage (Section 2.6.1) and WST-1 assays (Section 2.6.2), respectively. For this, stock solutions of 50 mg mL^–1 of glab, licoA, and glycy in DMSO were used. […] An overview of the experimental conditions for the exposure experiments with glab, licoA, and glycy is shown in Table S2 (Supporting Information). In brief, apical-out and apical-in enteroids were grown for 7–10 days in OGM (∼200 enteroids per dome), after which the medium was changed to ODM (supplemented with 5 μM DAPT) to initiate enteroid differentiation. To generate apical-out enteroids, MG was removed from apical-in enteroids in OGM at day 7–10, as described in Section 2.3, and suspended in supplemented ODM. After 3 days in ODM, the effects on cytotoxicity and cell viability of glab, licoA, and glycy in apical-out and apical-in enteroids (passages between 3 and 17) were assessed after 4 and 24 h of incubation. For apical-out enteroids in a suspension, enteroids were pelleted by centrifugation (2 min, 200g, RT), after which the ODM was removed and 500 μL of the experimental agent was added. […] Caco-2 cells were grown for 48 h after seeding before experiments (passages 14–19) with proliferating cells and for 21 days after seeding (passages 14–33) with differentiated cells.[17] The medium (DMEM supplemented with FCS) was changed every 2 days. For exposure experiments, Caco-2 cells were incubated with glab, licoA, and glycy in DMEM without FCS, as FCS serves as an exogenous source of LDH.[22]
(§2) Cytotoxic effects of glab, licoA, and glycy were assessed by measuring leakage of intracellular lactate dehydrogenase (LDH) in the supernatant and analyzed using an LDH cytotoxicity detection kit (Roche Applied Science, Almere, The Netherlands), according to the manufacturer’s instructions. The LDH activity in the supernatant was expressed as the percentage of the maximum releasable LDH in enteroids or Caco-2 cells (enteroids or Caco-2 cells treated with 1% (v/v) Triton X-100) and calculated with eq 1. [drawing 1] 1 in which exp. value is the UV absorbance at 492 nm (Tecan Spark or Tecan Infinite 200 Pro, Tecan Group Ltd., Zürich, Switzerland), background control is the medium with corresponding concentration of glab, licoA, or glycy, and high control is the maximum releasable LDH in enteroids or Caco-2 cells. For enteroids, each well was used as its own positive control by taking the total releasable LDH of each well after incubation.
In general terms: LDH in the medium is a marker of cell lysis.

For data set [2], the system named is human apical-in ileal enteroids. Nature of the data set: Biotransformation in apical-in ileal enteroids (RP-UHPLC-PDA-MSn). The format is in vitro ADME. To be noted: for biotransformation products formed: identified at the basolateral side; for phase I metabolites: up to 24 h incubation. As to the method:
(§3) Biotransformation of glab, licoA, and glycy in apical-out and apical-in enteroids was evaluated after 0, 4, and 24 h of incubation. For this, apical-out enteroids were stimulated with 50 μg mL^–1 (154 μM) glab, or with 100 μg mL^–1 licoA (296 μM), or 100 μg mL^–1 glycy (272 μM), and apical-in enteroids were stimulated with 50 μg mL^–1 glab (154 μM), 50 μg mL^–1 licoA (148 μM), or 50 μg mL^–1 glycy (136 μM). […] For apical-out enteroids, parent compounds and their transformation products were assessed on the enteroids’ apical (facing the medium) and basolateral side (inside the enteroids) and intracellularly. In apical-in enteroids, parent compounds and metabolites were assessed on the basolateral side (facing the medium). For the apical release, apical-out enteroids were pelleted (250g, 3 min, 4 °C), and the supernatant was used for LC-MS analysis, after which the enteroids were washed with PBS. Enteroids in a suspension in fresh PBS were broken up by vigorously pipetting up and down approximately for 20 times, after which enteroids were pelleted and the supernatant was used to determine basolateral release by using LC-MS. Enteroids were washed with PBS, and the enteroids’ cells in fresh PBS were disrupted on ice with a digital sonifier (Branson Ultrasonics Corporation, Danbury, CT, USA) with the following settings: a 5 s pulse, a 10 s pause, an amplitude of 55%, and 12 cycles. Enteroids were pelleted, and the supernatant was used as a measure for intracellular release and measured with LC-MS.
(§4) Samples were separated on a Thermo Vanquish UHPLC system (Thermo Scientific, San Jose, CA, USA) equipped with a pump, a degasser, an autosampler, and a PDA detector, as described elsewhere.[15] Eluents used were (A) LC-MS-grade MQ + 0.1% FA (v/v) and (B) LC-MS-grade ACN + 0.1% FA (v/v). The elution program was started by running isocratically at 1% B for 1.09 min followed by a 1.09–26.16 min linear gradient to 70% B, a 26.16–27.25 min linear gradient to 100% B, and 27.25–32.70 min isocratically at 100% B. The eluent was adjusted to start conditions in 1.09 min followed by equilibration of 5.45 min.
(§5) Mass spectrometric data were acquired using an LTQ Velos Pro linear ion trap mass spectrometer (Thermo Scientific), equipped with a heated ESI probe coupled in-line to the Vanquish UHPLC system, as described elsewhere.[15] Data were processed using Xcalibur 4.1 (Thermo Scientific).
(§6) Quantification of glab, licoA, glycy, and produced metabolites was based on UV absorbance at 280 nm (glab), 340–390 nm (licoA), and 320–370 nm (glycy). For this, a seven-point calibration (0.01–150 μg mL^–1) curve based on external standards of glab, licoA, and glycy (R^2 > 0.999) was used. UV peaks were integrated using the AVALON integration algorithm with the autocalc function (Xcalibur 4.1). Metabolites were quantified as glab, licoA, or glycy equivalents.

For data set [3], the system named is human apical-out ileal enteroids. Nature of the data set: Biotransformation in apical-out ileal enteroids (RP-UHPLC-PDA-MSn). The format is in vitro ADME. Particulars: for sulfation (LC-MS analysis): human ileal apical-out and apical-in enteroids; for biotransformation products formed: released on the apical side; for phase I biotransformation products: up to 24 h incubation. How it is done:
as §3, §4, §5, §6

The subject of data set [4] is human ileal apical-in enteroids. Nature of the data set: Cytotoxicity by LDH leakage assay in apical-in enteroids. The class given is cell-based. Particulars: 4 h, cutoff 25% vs negative control. How it is done:
as §1, §2

The subject of data set [5] is human CYP enzymes (i.e., CYP3A4). The arrangement: method as in PMID 17220245, PMID 28774812, PMID 12019199, PMID 26100226. To be noted: cited from earlier work.
Data set [6] is described as follows: Stability in the medium without enteroids. The format is physicochemical. Particulars: after 24 h of incubation. How it is done: as §6

Each structure is given as a SMILES string.

Take `C=CC(C)(C)c1cc(/C=C/C(=O)c2ccc(O)cc2)c(OC)cc1O` [licochalcone A]: the “cytotoxicity (LDH)” value in data set [1] (500 μg mL^–1, 4 h exposure, % of maximum releasable LDH) is reported as −6 ± 2%. Moreover, the “effects on cytotoxicity up to the highest concentrations” value in data set [1] (4 h exposure, up to 500 μg mL^–1, p > 0.05) was “No significant effects on cytotoxicity”. In data set [2] (24 h exposure, 50 μg mL^–1, basolateral side), the “% biotransformation to glucuronide compared to parent at t = 0 h” value was “comparably low”. Also, in data set [2], the biotransformation products formed entry was “transformed to their glucuronides” and the “phase I metabolites” value is given as “no phase I metabolites were identified”. The “% biotransformation to glucuronide compared to parent at t = 0 h” value in data set [3] (24 h exposure, 100 μg mL^–1 (licoA, glycy), apical side) was “comparably low”. Moreover, in data set [3], the “sulfation (LC-MS analysis)” value was “did not reveal sulfation”, the biotransformation products formed result is “glucuronide metabolites” and the “phase I biotransformation products” value was “No phase I biotransformation products”. The “highest nontoxic concentration (LDH)” value in data set [4] is “around 300 μM”. Also, the “inhibition of human CYP enzymes (i.e., CYP3A4)” value (“inhibition of human CYP enzymes” below) in data set [5] is “inhibition”. In addition, the “recovery in the medium (without enteroids)” value in data set [6] is 101 ± 3.2%.
In the case of `CC1(C)C=Cc2c(ccc3c2OC[C@@H](c2ccc(O)cc2O)C3)O1` [glabridin], the “fold higher concentration for significant cytotoxicity in apical-out vs apical-in enteroids” value in data set [1] (human) is listed as 3-5 fold. Also, in data set [2], the biotransformation products formed result is “transformed to their glucuronides” and the “phase I metabolites” value was “no phase I metabolites were identified”. In data set [3], the “sulfation (LC-MS analysis)” value is on record as “did not reveal sulfation”, the biotransformation products formed result was “glucuronide metabolites” and the “phase I biotransformation products” value is on record as “No phase I biotransformation products”. Moreover, in data set [4] (listed as Glabridin), the “highest nontoxic concentration (LDH)” value stood at 100 μg mL^–1. In addition, the “highest nontoxic concentration (LDH)” value in data set [4] (listed as glab) was “around 300 μM”. In addition, the “inhibition of human CYP enzymes” value in data set [5] is reported as “inhibition”. For the same molecule, the “recovery in the medium (without enteroids)” value in data set [6] is given as 101 ± 2.2%.
`COc1c(CC=C(C)C)c(O)cc2oc(=O)c(-c3ccc(O)cc3O)cc12` [glycycoumarin]: in data set [1] (human), the “fold higher concentration for significant cytotoxicity in apical-out vs apical-in enteroids” value was 3-5 fold. Further, the “cytotoxicity (LDH)” value in data set [1] (human, 4 h, 500 μg mL^–1) is reported as −2 ± 2%. In data set [2], the biotransformation products formed result is “transformed to their glucuronides” and the “phase I metabolites” value is “no phase I metabolites were identified”. In data set [3], the “sulfation (LC-MS analysis)” value is reported as “did not reveal sulfation”, the biotransformation products formed result was “glucuronide metabolites” and the “phase I biotransformation products” value is recorded as “No phase I biotransformation products”. Besides, the “highest nontoxic concentration (LDH)” value in data set [4] is recorded as “around 300 μM”. Also, the “inhibition of human CYP enzymes” value in data set [5] was “inhibition”. For the same molecule, in data set [6], the “recovery in the medium (without enteroids)” value came to 101 ± 3.0%.
